Assay results reported in patent publication US9034857B2 (Health Research, Inc., priority 2010, dated 2015).
Entries after “also recorded” stand apart in the source; their conditions may differ. Like-named read-outs stand apart in the source and are kept apart here.

Key:
[1] = test system: O2- in stationary phase cells; assay: Levels of O2- detected by DHE fluorescence in stationary phase cells; format: cell-based, Saccharomyces cerevisiae; details: for Superoxide anions: Table 2 summary, stationary phase
Description: The following materials and methods were used to obtain the data presented in this Example. To assess CLS 50 ml cultures were inoculated with 1% (v/v) of a fresh overnight culture in either SC or YPD. SC was supplemented using known techniques. In experiments that employed media that initially contained 10% glucose, control 2% glucose cultures also contained 8% sorbitol to maintain equivalent osmolarity. Determination of chronological life span, fraction of budded cells, flow cytometry measurements of DNA content and measurements of dihydroethidium (DHE) and dihydrorhodamine 123 (DHR) were used according to standard methods. N-acetylcysteine (NAC) and glutathione (GSH) were dissolved in growth medium, filter sterilized and added to cultures from 100 mM (NAC) or 250 mM (GSH) stocks at the start of experiments. Propidium iodide (PI) was used to assess viability of cells by mixing a 2 μl of cells with an equal volume of 1 mM PI on a microscope slide and examining the slide with a fluorescence microscope equipped with a Texas Red filter. Non-fluorescent cells were scored as intact (live) and fluorescent cells were scored as dead. The total number of cells in cultures was determined by particle counts using a Petroff Hauser counting chamber. Samples for transmission electron microscopy were prepared using standard methods. Briefly, cells cultured at 30° C. in YPD medium for 3 to 5 days were harvested by gentle centrifugation, washed in phosphate buffered saline (PBS) (pH=7.2), resuspended in 2.5% (v/v) glutaraldehyde in PBS and fixed for 40 min at room temperature. Cells were further fixed by 2% freshly prepared potassium permanganate in water for 1 hour at room temperature. Fixed cells were dehydrated with 30%, 50%, 75%, 85%, 95%, and 100% ethanol. Cells were transitioned with propylene oxide, infiltrated in Spurr resin (Electron Microscopy Sciences, PA). Resin was polymerized at 65° C. overnight in the oven. 60 nm ultrathin sections were cut with a diamond knife, stained with 2% uranyl acetate and lead citrate and examined using a Hitachi H-7000 electron microscope, equipped with a 4K×4K cooled CCD digital camera (Gatan, Inc., CA). Values presented in graphs that contain error bars represent means and standard deviations from three or more independent experiments. Other results are representative of at least three independent experiments. Statistical analyses were performed using Student's t-test. P<0.05 was considered statistically significant.

[2] = test system: interleukin-6 release from human macrophages; assay: Interleukin-6 release from human macrophages; format: cell-based
[3] = test system: intracellular O2- in stationary phase budding yeast cells; assay: High throughput flow cytometry DHE screen for reduction of superoxide in stationary phase budding yeast; format: cell-based, S. cerevisiae
[4] = test system: mammalian cells; details: cited from earlier work
[5] = test system: Saccharomyces cerevisiae; assay: Chronological lifespan (CLS) of budding yeast; format: cell-based
[6] = test system: budding yeast; details: cited from earlier work
[7] = test system: ribonucleotide reductase; details: low levels of hydroxyurea; cited from earlier work

Structure (SMILES): N[C@@H](CCC(=O)N[C@@H](CS)C(=O)NCC(=O)O)C(=O)O [GSH, glutathione]
- Superoxide anions [1]: ↓
- levels of O2- (DHE fluorescence) ([1]; wild type cells, day 3 of medium depletion): reduced levels of O2-

Structure (SMILES): Cc1ccc(-c2nn(C(C)(C)C)c3ncnc(N)c23)cc1 [MLS000326642, 1-tert-butyl-3-(4-methylphenyl)pyrazolo[3,4-d]pyrimidin-4-amine]
- inhibition of interleukin-6 release [2]: inhibit interleukin-6 release
- dose dependency in re-screening (reduction of superoxide, DHE) [3]: identified by dose dependency; also recorded: exhibited dose dependency
- reducing superoxide anions in S. cerevisiae [3]: reducing superoxide anions

Structure (SMILES): c1ccc2nc3cc4[nH]cnc4cc3nc2c1 [MLS000700045, 1H-imidazo[4,5-b]phenazine]
- inhibition of interleukin-6 release [2]: inhibit interleukin-6 release
- reducing superoxide anions in S. cerevisiae [3]: reducing superoxide anions
- dose dependency in re-screening (reduction of superoxide, DHE) ([3]; dose response assays from 0.004 uM to 30 uM, 7 day incubation, 7% glucose): identified by dose dependency; also recorded: exhibited dose dependency

Structure (SMILES): CC(=O)N[C@@H](CS)C(=O)O [N-acetylcysteine]
- levels of O2- (DHE fluorescence) [1]: absent
- Superoxide anions [1]: ↑
- levels of O2- (DHE fluorescence) ([1]; wild type cells, day 3 of medium depletion, listed as NAC): dose-dependent increases; also recorded: elevate O2- levels
- induction of O2- [4]: induction of O2-
- chronological lifespan (CLS) ([5]; sch9Δ cells): not sch9Δ cells
- chronological lifespan (CLS) ([5]; wild type cells, listed as NAC): shortened CLS in a dose-dependent fashion; also recorded: shorten CLS

Structure (SMILES): O=C(Nc1ccccc1-c1cn2c(CN3CCNCC3)csc2n1)c1cnc2ccccc2n1 [SRT1720, reference compound]
- inhibition of interleukin-6 release [2]: inhibit interleukin-6 release
- reducing superoxide anions in S. cerevisiae [3]: reducing superoxide anions

Structure (SMILES): COC1=C(OC)C(=O)C(C/C=C(\C)CC/C=C(\C)CC/C=C(\C)CC/C=C(\C)CC/C=C(\C)CC/C=C(\C)CC/C=C(\C)CC/C=C(\C)CC/C=C(\C)CCC=C(C)C)=C(C)C1=O [coenzyme Q10]
- pro-oxidant effects [6]: pro-oxidant effects

Structure (SMILES): NC(=O)NO [hydroxyurea]
- shortening of CLS [7]: 20-27%

Structure (SMILES): Cc1c(C)c2c(c(C)c1O)CC[C@@](C)(CCC[C@H](C)CCC[C@H](C)CCCC(C)C)O2 [α-tocopherol]
- pro-oxidant effects [6]: pro-oxidant effects
